Measurements: US20260183408A1, “POLYPEPTIDE AND USE THEREOF” (SHENZHEN CHENYANG BIOLOGICAL TECHNOLOGY CO., LTD, priority 2022, published 2026)

How the values were obtained:
[1] = test system: CRS mice; assay: Sucrose preference test (SPT); assay type: in vivo, mouse; details: single intraperitoneal 3 nmol/g, compared with TAT-treated mice (FIG. 12)
Procedure: (§1) The C57BL/6J mice were horizontally fixed for 6 h (from 10 to 16 o'clock) in a first acrylic restraint which is cylindrical and flat-bottomed (25×90 mm) every day for 2 weeks. The filter had several slots which could adapt to the size of each mouse to firmly restrain the mouse and inhibit body movements of the limb and trunk without causing pain. Immediately after being restrained, the mice were sent back to their cages. Unrestrained mice (control) stayed in their cages when no CRS procedure was performed. Neither the control mice nor the CRS mice could have access to food and water during the CRS exposure.
(§2) The C57BL/6J mice were subjected to various stress including restraint (for 4 h), cage tilting (for 45 times, with 12 h each time), light-dark cycle reversal (once), flash (for 12 h), and dirty cage (for 2 times, with 14 h each time). The protocol lasted 6 weeks. Control mice were not subjected to corresponding stress.
(§3) The mice were treated with TAT or TAT-D2R-KL (single intraperitoneal administration at 3 nmol/g in both cases). […]
SPT (Sucrose preference test): A two-bottle choice paradigm was adopted. […] Finally, the volume of consumed water or sucrose solution was recorded and calculation was carried out with the following equation (I): […]

[2] = test system: CRS mice; assay: Tail suspension test (TST); assay type: in vivo, mouse; details: single intraperitoneal 3 nmol/g, 1 hour after treatment, compared with TAT-treated mice (FIG. 12)
Procedure: as §1, §2, §3
TST: The mice were suspended with a tape to a position 40 cm above the floor within a rectangular compartment (length 55 cm× width 20 cm× depth 11.5 cm). A video was recorded for a total of 5 minutes, and the immobility time was recorded. […]

[3] = target: T1, D2R/5-HT2CR complex (Homo sapiens, UniProt P28335); assay: Co-immunoprecipitation / Western blotting of polypeptide-treated 293T cells; assay type: cell-based; details: 293T cells transfected with 5-HT2CR and D2R, in the presence of 5-HT2CR and D2R agonists, TAT as control (FIG. 6)
T1 construct: host or cells: human 293T cells
T1 sequence (P28335 33-458): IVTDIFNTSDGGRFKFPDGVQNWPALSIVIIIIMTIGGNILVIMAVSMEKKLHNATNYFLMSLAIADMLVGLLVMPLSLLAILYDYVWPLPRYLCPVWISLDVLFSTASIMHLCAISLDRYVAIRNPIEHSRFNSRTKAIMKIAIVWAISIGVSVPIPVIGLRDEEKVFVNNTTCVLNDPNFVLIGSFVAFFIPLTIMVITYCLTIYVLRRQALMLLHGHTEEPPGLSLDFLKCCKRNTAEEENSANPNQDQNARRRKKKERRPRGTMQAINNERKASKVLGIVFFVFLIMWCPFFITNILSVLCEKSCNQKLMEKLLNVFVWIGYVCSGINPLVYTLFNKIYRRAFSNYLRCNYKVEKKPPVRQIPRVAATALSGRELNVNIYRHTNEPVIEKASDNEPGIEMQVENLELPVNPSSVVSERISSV
Procedure: Co-immunoprecipitation was performed using protein samples (with 100-500 μg protein) from the hippocampal tissue of the Balb/c mice. Mouse monoclonal antibodies against both 5-HT2CR and D2R, D2R, or 5-HT2CR were used for precipitation with 25 μl of the slurry of protein A/G+agarose beads (SantaCruz Biotechnology, sc-2001).
Western blotting analysis after precipitation: Denatured (at 100° C. for 10 min) proteins were separated on an 8% SDS-PAGE gel, then transferred to a nitrocellulose membrane, which was then blocked with skim milk in TBST (Tris-buffered saline with 0.1% Tween 20). Next, incubation was carried out with the primary antibodies at 4° C. overnight. Finally, treatment with an HRP-conjugated secondary antibody were performed for 1 h, signals were detected using the ECL UltraSignal chemiluminescence kit (4A Biotech, cat. no. 4AW011-500), and the bands were analyzed for densities using the Image Lab software.
Next, the 293T cells were treated with TAT-D2R-KL in the presence of 5-HT2CR and D2R agonists, while treatment with TAT was used as a control. The specific process was shown in FIG. 5, where the human 293T cell line was cultured in a high-glucose modified Eagle's medium (DMEM) supplemented with 10% fetal bovine serum (FBS). The cells were maintained in an atmosphere of 95% air and 5% carbon dioxide in an incubator at 37° C. […]

In the case of “TAT-D2R-KL: C-terminus of the KL (K226-L240) region of D2R fused to the transduction domain of HIV-1 Tat protein (SEQ ID NO: 5)”, the sucrose preference [1] is reported as “significantly enhanced”, the “immobility time (TST)” value [2] is reported as “significantly reduced” and the “interaction between 5-HT2CR and D2R” value [3] is reported as “significantly reduced”.
